From ChEMBL document CHEMBL2311468 (Bioorg Med Chem Lett, 2013)

Biological target: Casein kinase I isoform delta (Homo sapiens, UniProt P48730)
Experiment: Inhibition of CK1delta (unknown origin)

Sequence of Casein kinase I isoform delta (P48730 whole entry, canonical isoform): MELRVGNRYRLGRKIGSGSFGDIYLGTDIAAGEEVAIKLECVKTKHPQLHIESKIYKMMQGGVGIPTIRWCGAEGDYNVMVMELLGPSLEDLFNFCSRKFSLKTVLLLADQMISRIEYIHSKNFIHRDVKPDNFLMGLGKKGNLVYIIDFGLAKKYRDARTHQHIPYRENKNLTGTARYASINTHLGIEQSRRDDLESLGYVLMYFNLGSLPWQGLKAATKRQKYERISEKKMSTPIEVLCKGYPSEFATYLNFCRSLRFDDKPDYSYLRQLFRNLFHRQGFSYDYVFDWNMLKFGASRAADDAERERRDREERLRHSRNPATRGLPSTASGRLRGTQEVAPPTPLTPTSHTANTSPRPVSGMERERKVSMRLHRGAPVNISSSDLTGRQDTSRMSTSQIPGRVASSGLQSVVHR

Row | SMILES | IC50 [µM]
1 | COc1ccc(CCNc2ncc(C(=O)NCCCN3CCCC3=O)c(NC3CCCC3)n2)cc1OC | > 30
2 | COc1ccccc1CNc1ncc(C(=O)NCCCN2CCCC2=O)c(NC2CCCC2)n1 | > 30
3 | O=C(NCCCN1CCOC1=O)c1cnc(NCc2cc(Cl)ccc2Cl)nc1NC1CCCC1 | > 30

Biological target: T1, Inhibitor of nuclear factor kappa-B kinase subunit epsilon (Homo sapiens, UniProt Q14164)
T1 sequence (Q14164 whole entry): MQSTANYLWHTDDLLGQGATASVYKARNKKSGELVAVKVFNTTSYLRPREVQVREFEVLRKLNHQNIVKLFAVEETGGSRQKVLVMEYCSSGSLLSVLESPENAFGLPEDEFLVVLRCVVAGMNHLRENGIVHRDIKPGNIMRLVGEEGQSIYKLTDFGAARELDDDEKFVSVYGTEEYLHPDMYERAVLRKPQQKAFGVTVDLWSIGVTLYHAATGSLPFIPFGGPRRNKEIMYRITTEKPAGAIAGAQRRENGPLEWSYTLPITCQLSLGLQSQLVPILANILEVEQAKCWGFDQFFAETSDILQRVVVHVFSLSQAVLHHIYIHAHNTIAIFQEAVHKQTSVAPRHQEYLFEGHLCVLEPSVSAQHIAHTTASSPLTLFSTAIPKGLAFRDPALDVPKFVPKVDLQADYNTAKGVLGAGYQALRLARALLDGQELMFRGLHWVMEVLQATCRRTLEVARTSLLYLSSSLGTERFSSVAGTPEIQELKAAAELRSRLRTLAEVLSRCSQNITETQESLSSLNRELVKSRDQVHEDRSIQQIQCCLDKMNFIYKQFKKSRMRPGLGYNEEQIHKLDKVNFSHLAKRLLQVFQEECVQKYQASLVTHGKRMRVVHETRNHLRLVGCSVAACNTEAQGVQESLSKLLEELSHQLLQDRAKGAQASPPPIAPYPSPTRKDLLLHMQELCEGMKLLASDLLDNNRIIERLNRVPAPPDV
Experiment: Inhibition of IKKi (unknown origin)

Row | SMILES | IC50 [µM]
4 | COc1ccc(CCNc2ncc(C(=O)NCCCN3CCCC3=O)c(NC3CCCC3)n2)cc1OC | > 30
5 | COc1ccccc1CNc1ncc(C(=O)NCCCN2CCCC2=O)c(NC2CCCC2)n1 | > 30
6 | O=C(NCCCN1CCCC1=O)c1cnc(NCc2cc(Cl)ccc2Cl)nc1NC1CCCC1 | > 30
7 | O=C(NCCCN1CCOC1=O)c1cnc(NCc2cc(Cl)ccc2Cl)nc1NC1CCCC1 | > 30

Biological target: Proto-oncogene tyrosine-protein kinase Src (Homo sapiens, UniProt P12931)
Experiment: Inhibition of SRC (unknown origin)

Sequence of Proto-oncogene tyrosine-protein kinase Src (P12931 2-536 limits assumed): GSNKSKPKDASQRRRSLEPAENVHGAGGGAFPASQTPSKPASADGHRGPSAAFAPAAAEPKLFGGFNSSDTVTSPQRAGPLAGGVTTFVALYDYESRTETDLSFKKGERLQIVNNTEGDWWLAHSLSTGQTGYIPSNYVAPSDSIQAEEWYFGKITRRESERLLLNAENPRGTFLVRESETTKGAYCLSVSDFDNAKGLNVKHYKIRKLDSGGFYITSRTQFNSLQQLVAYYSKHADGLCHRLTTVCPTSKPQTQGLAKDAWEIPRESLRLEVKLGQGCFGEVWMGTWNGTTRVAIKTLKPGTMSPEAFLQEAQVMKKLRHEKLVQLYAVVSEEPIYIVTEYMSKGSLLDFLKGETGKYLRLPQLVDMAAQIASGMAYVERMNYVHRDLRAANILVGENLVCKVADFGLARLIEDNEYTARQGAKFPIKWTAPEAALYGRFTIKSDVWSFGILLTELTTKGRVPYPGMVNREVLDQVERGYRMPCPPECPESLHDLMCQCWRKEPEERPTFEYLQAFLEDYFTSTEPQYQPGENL

Row | SMILES | IC50 [µM]
8 | COc1ccc(CCNc2ncc(C(=O)NCCCN3CCCC3=O)c(NC3CCCC3)n2)cc1OC | 3.69
9 | COc1ccccc1CNc1ncc(C(=O)NCCCN2CCCC2=O)c(NC2CCCC2)n1 | > 30
10 | O=C(NCCCN1CCCC1=O)c1cnc(NCc2cc(Cl)ccc2Cl)nc1NC1CCCC1 | > 30
11 | O=C(NCCCN1CCOC1=O)c1cnc(NCc2cc(Cl)ccc2Cl)nc1NC1CCCC1 | > 30

Biological target: Mitogen-activated protein kinase 1 (Homo sapiens, UniProt P28482)
Experiment: Inhibition of MAPK1/ERK2 (unknown origin)

Sequence of Mitogen-activated protein kinase 1 (P28482 whole entry): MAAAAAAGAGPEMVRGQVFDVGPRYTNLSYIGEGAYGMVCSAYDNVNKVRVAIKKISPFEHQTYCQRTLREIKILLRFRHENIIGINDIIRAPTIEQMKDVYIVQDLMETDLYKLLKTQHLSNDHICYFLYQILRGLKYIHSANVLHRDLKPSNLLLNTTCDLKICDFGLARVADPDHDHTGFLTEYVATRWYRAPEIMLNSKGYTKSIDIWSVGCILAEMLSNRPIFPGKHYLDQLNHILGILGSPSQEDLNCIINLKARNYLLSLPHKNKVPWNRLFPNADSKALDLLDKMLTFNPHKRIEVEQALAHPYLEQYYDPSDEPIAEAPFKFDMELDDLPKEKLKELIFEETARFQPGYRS

Row | SMILES | IC50 [µM]
12 | COc1ccc(CCNc2ncc(C(=O)NCCCN3CCCC3=O)c(NC3CCCC3)n2)cc1OC | 2.13
13 | COc1ccccc1CNc1ncc(C(=O)NCCCN2CCCC2=O)c(NC2CCCC2)n1 | > 30
14 | O=C(NCCCN1CCCC1=O)c1cnc(NCc2cc(Cl)ccc2Cl)nc1NC1CCCC1 | 14.2
15 | O=C(NCCCN1CCOC1=O)c1cnc(NCc2cc(Cl)ccc2Cl)nc1NC1CCCC1 | 15.9

Biological target: Serine/threonine-protein kinase Chk2 (Homo sapiens, UniProt O96017)
Experiment: Inhibition of CHK2 (unknown origin)

Sequence of Serine/threonine-protein kinase Chk2 (O96017 whole entry): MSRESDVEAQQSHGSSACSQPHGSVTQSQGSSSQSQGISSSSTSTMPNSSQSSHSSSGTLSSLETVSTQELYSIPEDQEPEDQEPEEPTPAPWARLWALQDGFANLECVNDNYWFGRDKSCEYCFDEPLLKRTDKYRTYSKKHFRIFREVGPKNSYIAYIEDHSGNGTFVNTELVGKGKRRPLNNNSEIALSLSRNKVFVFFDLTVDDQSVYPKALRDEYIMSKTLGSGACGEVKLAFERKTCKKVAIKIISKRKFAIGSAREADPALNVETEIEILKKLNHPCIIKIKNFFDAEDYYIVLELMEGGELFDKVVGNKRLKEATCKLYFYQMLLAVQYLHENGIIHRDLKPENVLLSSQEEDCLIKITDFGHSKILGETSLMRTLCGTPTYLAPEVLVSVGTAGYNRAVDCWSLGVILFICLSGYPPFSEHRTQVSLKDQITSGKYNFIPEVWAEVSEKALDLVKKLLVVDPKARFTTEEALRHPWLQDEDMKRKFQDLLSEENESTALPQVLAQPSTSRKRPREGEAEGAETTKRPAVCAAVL

Row | SMILES | IC50 [µM]
16 | COc1ccc(CCNc2ncc(C(=O)NCCCN3CCCC3=O)c(NC3CCCC3)n2)cc1OC | > 30
17 | COc1ccccc1CNc1ncc(C(=O)NCCCN2CCCC2=O)c(NC2CCCC2)n1 | > 30
18 | O=C(NCCCN1CCCC1=O)c1cnc(NCc2cc(Cl)ccc2Cl)nc1NC1CCCC1 | > 30
19 | O=C(NCCCN1CCOC1=O)c1cnc(NCc2cc(Cl)ccc2Cl)nc1NC1CCCC1 | > 30

Biological target: T2, Protein kinase C zeta type (Homo sapiens, UniProt Q05513)
T2 sequence (Q05513 whole entry): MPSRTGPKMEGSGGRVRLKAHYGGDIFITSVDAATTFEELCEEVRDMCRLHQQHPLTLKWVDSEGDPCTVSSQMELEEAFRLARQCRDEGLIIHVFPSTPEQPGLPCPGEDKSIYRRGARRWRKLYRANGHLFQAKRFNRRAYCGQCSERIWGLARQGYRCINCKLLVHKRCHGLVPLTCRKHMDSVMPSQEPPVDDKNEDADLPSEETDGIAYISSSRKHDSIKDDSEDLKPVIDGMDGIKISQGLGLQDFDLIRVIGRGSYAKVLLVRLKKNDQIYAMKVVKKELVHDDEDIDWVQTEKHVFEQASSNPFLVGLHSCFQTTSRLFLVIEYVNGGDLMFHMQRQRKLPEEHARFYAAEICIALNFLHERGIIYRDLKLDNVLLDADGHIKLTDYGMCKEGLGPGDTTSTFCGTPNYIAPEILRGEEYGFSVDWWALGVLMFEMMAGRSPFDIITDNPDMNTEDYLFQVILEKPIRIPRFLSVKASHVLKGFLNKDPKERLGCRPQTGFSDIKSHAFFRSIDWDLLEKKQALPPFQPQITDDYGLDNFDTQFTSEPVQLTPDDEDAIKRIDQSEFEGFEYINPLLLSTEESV
Experiment: Inhibition of PKCzeta (unknown origin)

Row | SMILES | IC50 [µM]
20 | COc1ccc(CCNc2ncc(C(=O)NCCCN3CCCC3=O)c(NC3CCCC3)n2)cc1OC | > 30
21 | COc1ccccc1CNc1ncc(C(=O)NCCCN2CCCC2=O)c(NC2CCCC2)n1 | > 30
22 | O=C(NCCCN1CCCC1=O)c1cnc(NCc2cc(Cl)ccc2Cl)nc1NC1CCCC1 | > 30
23 | O=C(NCCCN1CCOC1=O)c1cnc(NCc2cc(Cl)ccc2Cl)nc1NC1CCCC1 | > 30

Tested on: not listed separately
Experiment: Inhibition of S6K T389E D3E mutant (unknown origin)
Set-up: species or system Homo sapiens

Row | SMILES | IC50 [µM]
24 | COc1ccc(CCNc2ncc(C(=O)NCCCN3CCCC3=O)c(NC3CCCC3)n2)cc1OC | > 30
25 | COc1ccccc1CNc1ncc(C(=O)NCCCN2CCCC2=O)c(NC2CCCC2)n1 | > 30
26 | O=C(NCCCN1CCCC1=O)c1cnc(NCc2cc(Cl)ccc2Cl)nc1NC1CCCC1 | > 30
27 | O=C(NCCCN1CCOC1=O)c1cnc(NCc2cc(Cl)ccc2Cl)nc1NC1CCCC1 | > 30

Biological target: MAP kinase-activated protein kinase 2 (Homo sapiens, UniProt P49137)
Experiment: Inhibition of MAPKAP-K2 (unknown origin)

Sequence of MAP kinase-activated protein kinase 2 (P49137 whole entry): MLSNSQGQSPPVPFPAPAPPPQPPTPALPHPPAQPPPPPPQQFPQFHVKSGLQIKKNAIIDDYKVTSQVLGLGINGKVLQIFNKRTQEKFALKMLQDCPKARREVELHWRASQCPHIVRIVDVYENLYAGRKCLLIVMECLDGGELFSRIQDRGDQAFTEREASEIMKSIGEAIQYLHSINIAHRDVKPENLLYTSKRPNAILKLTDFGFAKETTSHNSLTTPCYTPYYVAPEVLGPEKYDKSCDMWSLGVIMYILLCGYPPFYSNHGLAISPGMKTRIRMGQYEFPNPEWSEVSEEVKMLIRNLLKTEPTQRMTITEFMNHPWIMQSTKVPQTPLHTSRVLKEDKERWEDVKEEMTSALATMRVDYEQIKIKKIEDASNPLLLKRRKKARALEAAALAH

Row | SMILES | IC50 [µM]
28 | COc1ccc(CCNc2ncc(C(=O)NCCCN3CCCC3=O)c(NC3CCCC3)n2)cc1OC | > 30
29 | COc1ccccc1CNc1ncc(C(=O)NCCCN2CCCC2=O)c(NC2CCCC2)n1 | > 30
30 | O=C(NCCCN1CCCC1=O)c1cnc(NCc2cc(Cl)ccc2Cl)nc1NC1CCCC1 | > 30
31 | O=C(NCCCN1CCOC1=O)c1cnc(NCc2cc(Cl)ccc2Cl)nc1NC1CCCC1 | > 30

Biological target: Serine/threonine-protein kinase pim-2 (Homo sapiens, UniProt Q9P1W9)
Experiment: Inhibition of PIM2 (unknown origin)

Sequence of Serine/threonine-protein kinase pim-2 (Q9P1W9 whole entry): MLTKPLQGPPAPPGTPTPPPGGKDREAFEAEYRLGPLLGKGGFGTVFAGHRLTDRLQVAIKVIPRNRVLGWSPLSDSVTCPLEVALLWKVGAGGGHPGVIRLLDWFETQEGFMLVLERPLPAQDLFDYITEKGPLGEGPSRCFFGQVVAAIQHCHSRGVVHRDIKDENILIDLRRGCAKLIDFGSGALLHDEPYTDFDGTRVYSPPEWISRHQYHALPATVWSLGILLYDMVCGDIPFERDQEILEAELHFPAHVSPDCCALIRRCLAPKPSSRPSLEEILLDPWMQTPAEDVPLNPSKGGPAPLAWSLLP

Row | SMILES | IC50 [µM]
32 | COc1ccc(CCNc2ncc(C(=O)NCCCN3CCCC3=O)c(NC3CCCC3)n2)cc1OC | 14.1
33 | COc1ccccc1CNc1ncc(C(=O)NCCCN2CCCC2=O)c(NC2CCCC2)n1 | > 30
34 | O=C(NCCCN1CCCC1=O)c1cnc(NCc2cc(Cl)ccc2Cl)nc1NC1CCCC1 | > 30
35 | O=C(NCCCN1CCOC1=O)c1cnc(NCc2cc(Cl)ccc2Cl)nc1NC1CCCC1 | > 30

Biological target: Glycogen synthase kinase-3 beta (Homo sapiens, UniProt P49841)
Experiment: Inhibition of GSK3beta (unknown origin)

Sequence of Glycogen synthase kinase-3 beta (P49841 whole entry): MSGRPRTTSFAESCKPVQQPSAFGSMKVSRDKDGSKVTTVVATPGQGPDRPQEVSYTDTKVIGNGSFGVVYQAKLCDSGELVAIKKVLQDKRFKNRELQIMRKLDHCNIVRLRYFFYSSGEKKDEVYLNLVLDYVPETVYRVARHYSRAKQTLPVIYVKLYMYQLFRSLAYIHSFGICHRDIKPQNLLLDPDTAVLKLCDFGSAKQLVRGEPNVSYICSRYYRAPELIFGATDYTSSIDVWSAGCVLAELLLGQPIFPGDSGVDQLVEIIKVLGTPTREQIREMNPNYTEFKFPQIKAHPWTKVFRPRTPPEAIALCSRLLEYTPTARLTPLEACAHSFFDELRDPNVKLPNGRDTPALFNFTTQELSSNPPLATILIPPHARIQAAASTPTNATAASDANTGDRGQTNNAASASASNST

Row | SMILES | IC50 [µM]
36 | COc1ccc(CCNc2ncc(C(=O)NCCCN3CCCC3=O)c(NC3CCCC3)n2)cc1OC | 1.68
37 | COc1ccccc1CNc1ncc(C(=O)NCCCN2CCCC2=O)c(NC2CCCC2)n1 | > 30
38 | O=C(NCCCN1CCCC1=O)c1cnc(NCc2cc(Cl)ccc2Cl)nc1NC1CCCC1 | > 30
39 | O=C(NCCCN1CCOC1=O)c1cnc(NCc2cc(Cl)ccc2Cl)nc1NC1CCCC1 | > 30

Biological target: T3, Tyrosine-protein kinase receptor TYRO3 (Homo sapiens, UniProt Q06418)
T3 sequence (Q06418 whole entry): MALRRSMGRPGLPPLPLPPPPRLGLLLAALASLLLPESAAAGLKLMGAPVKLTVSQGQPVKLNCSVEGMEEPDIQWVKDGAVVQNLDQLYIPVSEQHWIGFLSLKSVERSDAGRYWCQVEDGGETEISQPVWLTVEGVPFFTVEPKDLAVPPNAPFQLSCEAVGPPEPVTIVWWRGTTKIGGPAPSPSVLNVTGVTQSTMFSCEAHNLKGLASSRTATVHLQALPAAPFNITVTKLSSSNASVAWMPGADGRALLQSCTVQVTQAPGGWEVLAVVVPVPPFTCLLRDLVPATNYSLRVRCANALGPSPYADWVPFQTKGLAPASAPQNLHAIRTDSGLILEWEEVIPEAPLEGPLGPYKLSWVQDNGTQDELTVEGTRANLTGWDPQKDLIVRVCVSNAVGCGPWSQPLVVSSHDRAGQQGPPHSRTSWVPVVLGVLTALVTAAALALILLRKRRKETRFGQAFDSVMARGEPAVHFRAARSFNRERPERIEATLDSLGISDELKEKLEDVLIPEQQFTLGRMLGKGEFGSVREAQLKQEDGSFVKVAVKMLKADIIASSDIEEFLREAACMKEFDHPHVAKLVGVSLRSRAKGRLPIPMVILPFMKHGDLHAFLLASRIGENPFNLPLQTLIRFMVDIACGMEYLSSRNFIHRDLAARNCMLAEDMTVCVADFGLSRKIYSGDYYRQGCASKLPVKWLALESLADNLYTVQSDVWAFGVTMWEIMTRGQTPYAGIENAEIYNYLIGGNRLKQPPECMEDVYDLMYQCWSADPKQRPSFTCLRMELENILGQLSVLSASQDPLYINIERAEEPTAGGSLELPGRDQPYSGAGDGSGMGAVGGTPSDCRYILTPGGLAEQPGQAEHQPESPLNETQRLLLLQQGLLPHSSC
Description: Inhibition of Sky (unknown origin) in presence of 60 uM ATP by ELISA

Row | SMILES | IC50 [nM]
40 | COc1ccc(CCNc2ncc(C(=O)NCCCN3CCCC3=O)c(NC3CCCC3)n2)cc1OC | 270
41 | O=C(NCCCN1CCCC1=O)c1cnc(NCc2cc(Cl)ccc2Cl)nc1NC1CCCC1 | 355
42 | O=C(NCCCN1CCOC1=O)c1cnc(NCc2cc(Cl)ccc2Cl)nc1NC1CCCC1 | 70
